# In paper PMC11514314, “The aquastatin biosynthetic gene cluster encodes a versatile polyketide synthase capable of synthesising heteromeric depsides with diverse alkyl side chains” (Chemical Science, 2024):
# Assays:
# S. aureus (ATCC 25923) [1] = assay: Antibacterial ProTOX bioassay, S. aureus; assay type: cell-based; conditions: Staphylococcus aureus, ATCC25923; S. aureus ATCC 25923, 48 h, 28 °C; read-out: Minimum inhibitory concentration (MIC) S. aureus
# Method: (§1) 12. Bioactivity screening.
# (§2) Purified metabolites were dissolved in DMSO to create stock solutions of 10,000 µg/mL. An aliquot from each stock solution was transferred to the first well of Rows B to G on a 96-well microtitre plate and then serially diluted two-fold with DMSO across the 12 wells of the plate to achieve a 2,048-fold concentration gradient. Bioassay medium was added to an aliquot of each diluted solution to achieve a 100-fold dilution in the final bioassay. This […]
# (§3) 0.1 µg/mL in 2% DMSO for yeasts. Row A served as a control with no test compound (indicating no inhibition), and Row H was left uninoculated (serving as a control for complete inhibition).
# (§4) B. subtilis (ATCC 6633), S. aureus (ATCC 25923) and MRSA (ATCC 33592) were used as indicator species for antibacterial activity, employing the ProTOX bioassay platform. A bacterial suspension (50 mL in a 250 mL flask) was prepared in nutrient media by cultivating it for 24 h at 250 rpm and 28 °C. The suspension was diluted to an absorbance of 0.01 absorbance units per mL, and 10 µL aliquots were added to the wells of a 96-well microtitre plate containing the test compounds dispersed in 190 µL of nutrient broth (Amyl) with 10 µL resazurin (12.5 µg/mL). The plates were incubated at 28 °C for 48 h, during which the positive control wells changed colour from blue to light pink. Tetracycline was employed as a control for B. subtilis, while ampicillin was used for S. aureus and MRSA. MIC endpoints were determined visually. Absorbance was measured using a Multiskan Skyhigh Microplate Spectrophotometer (Thermo Fisher Scientific) at 605 nm.
# [2] = test system: NFF (ATCC PCS-201) human neonatal foreskin fibroblast cells; assay: Cytotoxicity resazurin assay, NFF cells; assay type: cell-based; conditions: Homo sapiens; neonatal foreskin fibroblast NFF, 96 h; read-out: IC50 NFF
# Method: as §1, §2
# (§5) 0.1 µg/mL in 2% DMSO for yeasts. Row A served as a control with no test compound (indicating no inhibition), and Row H was left uninoculated (serving as a control for complete inhibition). […]
# (§6) MIC endpoints were determined visually. Absorbance was measured using a Multiskan Skyhigh […]
# as §6
# (§7) NS-1 (ATCC TIB-18) mouse myeloma and NFF (ATCC PCS -201) human neonatal foreskin fibroblast cells were each inoculated in 96-well microtitre plates (190 µL) at 50,000 cells/mL in DMEM (Dulbecco's Modified Eagle Medium + 10% fetal bovine serum (FBS) + 1% penicillin/streptomycin (10,000 U/mL / 10,000 µg/mL, Life Technologies Cat. No. 15140122), together with resazurin (250 µg/mL; 10 µL) and incubated in 37 °C (5% CO2) incubator. The plates were incubated for 96 h during which time the positive control wells change colour from a blue to pink colour. The absorbance of each well was measured using Multiskan Skyhigh Microplate Spectrophotometer (Thermofisher Scientific) at 605 nm. Sparsomycin was used as a control. The IC50 values were determined using a sigmoidal dose-response model with variable slope in GraphPad Prism 8.
# B. subtilis (ATCC 6633) [3] = assay: Antibacterial ProTOX bioassay, B. subtilis; assay type: cell-based; conditions: Bacillus subtilis, ATCC6633; B. subtilis ATCC 6633, 48 h, 28 °C; read-out: Minimum inhibitory concentration (MIC) B. subtilis
# Method: as §1, §2, §3, §4
# [4] = test system: fatty acid synthase II (FAS II); conditions: cited from earlier work
# [5] = test system: methicillin-resistant S. aureus (MRSA); parameters: method as in PMID 19952429; conditions: cited from earlier work
# [6] = test system: NS-1 (ATCC TIB-18) mouse myeloma cells; assay: Cytotoxicity resazurin assay, NS-1 cells; assay type: cell-based; conditions: NS1; mouse myeloma NS-1 ATCC TIB-18, 96 h; read-out: IC50 NS-1
# Method: as §1, §2, §5, §6, §6, §7
# MRSA (ATCC 33592) [7] = assay: Antibacterial ProTOX bioassay, MRSA; assay type: cell-based, methicillin-resistant S. aureus; conditions: Staphylococcus aureus; MRSA ATCC 33592, 48 h, 28 °C; read-out: Minimum inhibitory concentration (MIC) MRSA
# Method: as §1, §2, §3, §4
# [8] = test system: mammalian adenosine triphosphatases; parameters: method as in PMID 8270486; conditions: cited from earlier work
# [9] = test system: Saccharomyces cerevisiae (ATCC 9763); assay: Antifungal EuTOX bioassay, S. cerevisiae; assay type: cell-based; conditions: Saccharomyces cerevisiae, ATCC9763; S. cerevisiae ATCC 9763, 48 h; read-out: Minimum inhibitory concentration (MIC) S. cerevisiae
# Method: as §1, §2, §5, §6
# Saccharomyces cerevisiae (ATCC 9763) was used as indicator species for antifungal activity, employing the EuTOX bioassay platform. A yeast suspension (50 mL in a 250 mL flask) was prepared in 1% malt extract broth by cultivating it for 24 h at 250 rpm and 24 °C. The suspension was diluted to absorbances of 0.03 absorbance units per mL and 30 µL were added to the wells of a 96-well microtitre plate containing the test compounds dispersed in 100 µL of malt extract agar with bromocresol green (50 µg/mL). The plates were incubated at 28 °C for 48 h, during which the positive control wells changed colour from blue to yellow. Blasticidin S HCl was used
# HIV-1 integrase = test system: HIV-1 integrase; parameters: method as in PMID 19952429, PMID 15015729; conditions: cited from earlier work
# S. aureus (ATCC 25923) [10] = test system: S. aureus (ATCC 25923); parameters: method as in Crombie et al.[17]; conditions: ref Crombie et al.[17]; cited from earlier work
# MRSA (ATCC 33592) [11] = test system: MRSA (ATCC 33592); parameters: method as in Crombie et al.[17]; conditions: ref Crombie et al.[17]; cited from earlier work
# [12] = test system: NFF (ATCC PCS-201) human neonatal foreskin fibroblast cells; parameters: method as in Crombie et al.[17]; conditions: ref Crombie et al.[17]; cited from earlier work
# B. subtilis (ATCC 6633) [13] = test system: B. subtilis (ATCC 6633); parameters: method as in Crombie et al.[17]; conditions: ref Crombie et al.[17]; cited from earlier work
# [14] = test system: Saccharomyces cerevisiae (ATCC 9763); conditions: S. cerevisiae ATCC 9763; ref Crombie et al.[17]; cited from earlier work
# [15] = test system: NS-1 (ATCC TIB-18) mouse myeloma cells; parameters: method as in Crombie et al.[17]; conditions: mouse myeloma NS-1; ref Crombie et al.[17]; cited from earlier work
Structure (SMILES),MIC (S. aureus (ATCC 25923) [1]),IC50 [2],MIC (B. subtilis (ATCC 6633) [3]),inhibition of fatty acid synthase II (FAS II) [4],antibacterial activity against MRSA [5],IC50 [6],MIC (MRSA (ATCC 33592) [7]),inhibition of mammalian adenosine triphosphatases [8],MIC [9],inhibition of HIV-1 integrase (HIV-1 integrase),Minimum inhibitory concentration (MIC) S. aureus (S. aureus (ATCC 25923) [10]),Minimum inhibitory concentration (MIC) MRSA (MRSA (ATCC 33592) [11]),IC50 NFF [12],Minimum inhibitory concentration (MIC) B. subtilis (B. subtilis (ATCC 6633) [13]),Minimum inhibitory concentration (MIC) S. cerevisiae [14],IC50 NS-1 [15]
"CCCCCCCCCCCCCCCc1cc(O[C@@H]2O[C@H](CO)[C@@H](O)[C@H](O)[C@H]2O)cc(O)c1C(=O)Oc1cc(C)c(C(=O)O)c(O)c1 [1a, Aquastatin A]",12.5 mg/L,> 100 mg/L,1.6 mg/L,inhibit,demonstrated antibacterial activity,> 100 mg/L,1.6 mg/L,inhibitor,> 200 mg/L,inhibit,–,–,–,–,–,–
"CCCCC/C=C\C/C=C\CCCCCCCc1cc(O[C@@H]2O[C@H](CO)[C@H](O)[C@H](O)[C@H]2O)cc(O)c1C(=O)Oc1cc(C)c(C(=O)O)c(O)c1 [2a, Geministatin A]",–,–,–,–,–,–,–,–,–,–,6.3 mg/L,6.3 mg/L,>100 µM,1.6 mg/L,>200 mg/L,>50 µM
"CCCCC/C=C\C/C=C\CCCCCCCc1cc(O)cc(O)c1C(=O)Oc1cc(C)c(C(=O)O)c(O)c1 [2b, Geministatin B]",–,–,–,–,–,–,–,–,–,–,3.1 mg/L,1.6 mg/L,>100 µM,0.4 mg/L,>200 mg/L,>50 µM
